From patent US9278996B2, “Dolastatin-10 derivative, method of producing the same and anticancer drug composition containing the same” (CELLTRION, INC., priority 2012, dated 2016)

Test system: breast cancer (BT-474)
Assay: Anticancer activity assay (WST-8 cell growth), BT-474
Format: cell-based
Settings: Homo sapiens, BT-474, 96 h, read-out: IC50 (nM) BT-474
Description: (§1) The compounds of the present invention were assayed for inhibitory activity against 7 cancer cell lines as breast cancer (BT-474), human epithelial cancer (A-431), non-small cell lung cancer (NCI-H460), colon cancer (HT-29), colon cancer (SW-620), breast cancer (MDA-MB-231) and breast cancer (MCF-7).
(§2) Briefly, a suspension of each cancer cell line was serially diluted, and plated at a density of 2˜3×10^3 cells/well into 96-well microplates, followed by incubation at 37° C. for 4 day in a 5% CO2 atmosphere. Cell growth in a monolayer was measured using WST-8 reagemt (Dojindo, Japan).
(§3) IC50 values of the compounds against the cancer cell lines were calculated as compound concentrations at which the cells were grown by 50% OD of the control.

| Structure (SMILES) | IC50 [nM] |
| --- | --- |
| CC[C@H](C)[C@@H]([C@@H](CC(=O)N1C[C@H](OC)C[C@@H]1[C@H](OC)[C@@H](C)C(=O)N[C@H](C)C(=NO)c1ccc(F)cc1)OC)N(C)C(=O)[C@@H](NC(=O)[C@H](C(C)C)N(C)C)C(C)C [Compound I-21, (S)-2-((S)-2-(dimethylamino)-3-methylbutaneamido)-N-((3R,4S,5S)-1-((2R,4R)-2-((1R,2R)-3-(((R)-1-(4-fluorophenyl)-1-(hydroxyimino)propan-2-yl)amino)-1-methoxy-2-methyl-3-oxopropyl)-4-methoxypyrrolidin-1-yl)-3-methoxy-5-methyl-1-oxoheptan-4-yl)-N,3-dimethylbutanamide] | 0.59 |
| CC[C@H](C)[C@@H]([C@@H](CC(=O)N1C[C@H](OC)C[C@@H]1[C@H](OC)[C@@H](C)C(=O)NCC(=NO)c1cc(Br)ccc1C)OC)N(C)C(=O)[C@@H](NC(=O)[C@H](C(C)C)N(C)C)C(C)C [Compound I-22, (S)—N-((3R,4S,5S)-1-((2R,4R)-2-((1R,2R)-3-((2-(5-bromo-2-methylphenyl)-2-(hydroxyimino)ethyl)amino)-1-methoxy-2-methyl-3-oxopropyl)-4-methoxypyrrolidin-1-yl)-3-methoxy-5-methyl-1-oxoheptan-4-yl)-2-((S)-2-(dimethylamino)-3-methylbutaneamido)-N,3-dimethylbutanamide] | 0.91 |
| CC[C@H](C)[C@@H]([C@@H](CC(=O)N1C[C@H](OC)C[C@H]1[C@H](OC)[C@@H](C)C(=O)NC/C(=N/O)c1ccc(OC)cc1F)OC)N(C)C(=O)[C@@H](NC(=O)[C@@H](NC)C(C)C)C(C)C [Compound I-25] | 0.41 |
| CC[C@H](C)[C@@H]([C@@H](CC(=O)N1C[C@H](OC)CC1[C@H](OC)[C@@H](C)C(=O)NCC(=O)c1ccc(F)cc1C)OC)N(C)C(=O)[C@@H](NC(=O)[C@H](C(C)C)N(C)C)C(C)C (some centres unmarked) [Compound I-26] | 0.79 |
| CC[C@H](C)[C@@H]([C@@H](CC(=O)N1C[C@H](OC)CC1[C@H](OC)[C@@H](C)C(=O)NCC(=O)c1ccc(F)cc1C)OC)N(C)C(=O)[C@@H](NC(=O)[C@@H](NC)C(C)C)C(C)C (some centres unmarked) [Compound I-27] | 0.5 |
| CC[C@H](C)[C@@H]([C@@H](CC(=O)N1C[C@H](OC)C[C@H]1[C@H](OC)[C@@H](C)C(=O)NCC(=O)c1ccccc1C)OC)N(C)C(=O)[C@@H](NC(=O)[C@@H](NC)C(C)C)C(C)C [Compound I-28, (S)—N-((3R,4S,5S)-3-methoxy-1-((2S,4R)-4-methoxy-2-((1R,2R)-1-methoxy-2-methyl-3-oxo-3-((2-oxo-2-(o-tolyl)ethyl)amino)propyl)pyrrolidin-1-yl)-5-methyl-1-oxoheptan-4-yl)-N,3-dimethyl-2-((S)-3-methyl-2-(methylamino)butaneamido)butanamide] | 0.65 |
| CC[C@H](C)[C@@H]([C@@H](CC(=O)N1C[C@H](OC)C[C@H]1[C@H](OC)[C@@H](C)C(=O)NCC(=O)c1ccc(C)cc1)OC)N(C)C(=O)[C@@H](NC(=O)[C@@H](NC)C(C)C)C(C)C [Compound I-29, (S)—N-((3R,4S,5S)-3-methoxy-1-((2S,4R)-4-methoxy-2-((1R,2R)-1-methoxy-2-methyl-3-oxo-3-((2-oxo-2-(p-tolyl)ethyl)amino)propyl)pyrrolidin-1-yl)-5-methyl-1-oxoheptan-4-yl)-N,3-dimethyl-2-((S)-3-methyl-2-(methylamino)butaneamido)butanamide] | 0.61 |
| CC[C@H](C)[C@@H]([C@@H](CC(=O)N1C[C@H](OC)C[C@H]1[C@H](OC)[C@@H](C)C(=O)NCC(=O)c1ccc(F)cc1)OC)N(C)C(=O)[C@@H](NC(=O)[C@@H](NC)C(C)C)C(C)C [Compound I-30] | 0.77 |
| CC[C@H](C)[C@@H]([C@@H](CC(=O)N1C[C@H](OC)C[C@H]1[C@H](OC)[C@@H](C)C(=O)NCC(=O)c1ccc(OC)cc1F)OC)N(C)C(=O)[C@@H](NC(=O)[C@@H](NC)C(C)C)C(C)C [Compound I-31] | 0.54 |
| CC[C@H](C)[C@@H]([C@@H](CC(=O)N1CSC[C@@H]1[C@H](OC)[C@@H](C)C(=O)NCCc1c(F)cccc1F)OC)N(C)C(=O)[C@@H](NC(=O)[C@@H](NC)C(C)C)C(C)C [Compound I-32, (S)—N-((3R,4S,5S)-1-((S)-4-((1R,2R)-3-((2,6-difluorophenethyl)amino)-1-methoxy-2-methyl-3-oxopropyl)thiazolidin-3-yl)-3-methoxy-5-methyl-1-oxoheptan-4-yl)-N,3-dimethyl-2-((S)-3-methyl-2-(methylamino)butaneamido)butanamide] | 0.64 |
| CC[C@H](C)[C@@H]([C@@H](CC(=O)N1C[C@H](OC)C[C@H]1[C@H](OC)[C@@H](C)C(=O)NCC(=O)c1ccccc1)OC)N(C)C(=O)[C@@H](NC(=O)[C@@H](NC)C(C)C)C(C)C [Compound I-34] | 9.71 |
| CC[C@H](C)[C@@H]([C@@H](CC(=O)N1C[C@H](OC)C[C@H]1[C@H](OC)[C@@H](C)C(=O)NCCc1ccccn1)OC)N(C)C(=O)[C@@H](NC(=O)[C@@H](NC)C(C)C)C(C)C [Compound I-38, (2S)—N-((3R,4S)-3-methoxy-1-((2S,4R)-4-methoxy-2-((1R,2R)-1-methoxy-2-methyl-3-oxo-3-((2-(pyridin-2-yl)ethyl)amino)propyl)pyrrolidin-1-yl)-5-methyl-1-oxoheptan-4-yl)-N,3-dimethyl-2-((S)-3-methyl-2-(methylamino)butaneamido)butanamide] | 1.32 |
| CC[C@H](C)[C@@H]([C@@H](CC(=O)N1C[C@H](OC)C[C@H]1[C@H](OC)[C@@H](C)C(=O)NCCc1cccs1)OC)N(C)C(=O)[C@@H](NC(=O)[C@@H](NC)C(C)C)C(C)C [Compound I-39, (2S)—N-((3R,4S)-3-methoxy-1-((2S,4R)-4-methoxy-2-((1R,2R)-1-methoxy-2-methyl-3-oxo-3-((2-(thiophen-2-yl)ethyl)amino)propyl)pyrrolidin-1-yl)-5-methyl-1-oxoheptan-4-yl)-N,3-dimethyl-2-((S)-3-methyl-2-(methylamino)butaneamido)butanamide] | 0.67 |
| CC[C@H](C)[C@@H]([C@@H](CC(=O)N1C[C@@H](O)C[C@H]1[C@H](OC)[C@@H](C)C(=O)NCCc1c(F)cccc1F)OC)N(C)C(=O)[C@@H](NC(=O)[C@H](C(C)C)N(C)C)C(C)C [Compound I-40] | 0.23 |
| CC[C@H](C)[C@@H]([C@@H](CC(=O)N1C[C@@H](O)C[C@H]1[C@H](OC)[C@@H](C)C(=O)N[C@@H](C)C(=O)c1ccc(F)cc1)OC)N(C)C(=O)[C@@H](NC(=O)[C@H](C(C)C)N(C)C)C(C)C [Compound I-41, (2S)-2-((S)-2-(dimethylamino)-3-methylbutaneamido)-N-((3R,4S)-1-((2S,4S)-2-((1R,2R)-3-(((S)-1-(4-fluorophenyl)-1-oxopropan-2-yl)amino)-1-methoxy-2-methyl-3-oxopropyl)-4-hydroxypyrrolidin-1-yl)-3-methoxy-5-methyl-1-oxoheptan-4-yl)-N,3-dimethylbutanamide] | 1.83 |
| CC[C@H](C)[C@@H]([C@@H](CC(=O)N1C[C@@H](O)C[C@H]1[C@H](OC)[C@@H](C)C(=O)NCCc1c(F)cccc1F)OC)N(C)C(=O)[C@@H](NC(=O)[C@@H](NC)C(C)C)C(C)C [Compound I-42, (2S)—N-((3R,4S)-1-((2S,4S)-2-((1R,2R)-3-((2,6-difluorophenethyl)amino)-1-methoxy-2-methyl-3-oxopropyl)-4-hydroxypyrrolidin-1-yl)-3-methoxy-5-methyl-1-oxoheptan-4-yl)-N,3-dimethyl-2-((S)-3-methyl-2-(methylamino)butaneamido)butanamide] | 0.74 |
| CC[C@H](C)[C@@H]([C@@H](CC(=O)N1C[C@@H](O)C[C@H]1[C@H](OC)[C@@H](C)C(=O)N[C@@H](C)C(=O)c1ccc(F)cc1)OC)N(C)C(=O)[C@@H](NC(=O)[C@@H](NC)C(C)C)C(C)C [Compound I-43, (2S)—N-((3R,4S)-1-((2S,4S)-2-((1R,2R)-3-(((S)-1-(4-fluorophenyl)-1-oxopropan-2-yl)amino)-1-methoxy-2-methyl-3-oxopropyl)-4-hydroxypyrrolidin-1-yl)-3-methoxy-5-methyl-1-oxoheptan-4-yl)-N,3-dimethyl-2-((S)-3-methyl-2-(methylamino)butaneamido)butanamide] | 6.43 |
| CC[C@H](C)[C@@H]([C@@H](CC(=O)N1C[C@@H](N)C[C@H]1[C@H](OC)[C@@H](C)C(=O)NCCc1c(F)cccc1F)OC)N(C)C(=O)[C@@H](NC(=O)[C@H](C(C)C)N(C)C)C(C)C [Compound I-44, (2S)—N-((3R,4S)-1-((2S,4S)-4-amino-2-((1R,2R)-3-((2,6-difluorophenethyl)amino)-1-methoxy-2-methyl-3-oxopropyl)pyrrolidin-1-yl)-3-methoxy-5-methyl-1-oxoheptan-4-yl)-2-((S)-2-(dimethylamino)-3-methylbutaneamido)-N,3-dimethylbutanamide] | 0.17 |
| CC[C@H](C)[C@@H]([C@@H](CC(=O)N1C[C@@H](NC)C[C@H]1[C@H](OC)[C@@H](C)C(=O)NCCc1c(F)cccc1F)OC)N(C)C(=O)[C@@H](NC(=O)[C@H](C(C)C)N(C)C)C(C)C [Compound I-45, (2S)—N-((3R,4S)-1-((2S,4S)-2-((1R,2R)-3-((2,6-difluorophenethyl)amino)-1-methoxy-2-methyl-3-oxopropyl)-4-(methylamino)pyrrolidin-1-yl)-3-methoxy-5-methyl-1-oxoheptan-4-yl)-2-((S)-2-(dimethylamino)-3-methylbutaneamido)-N,3-dimethylbutanamide] | 0.34 |

Test system: non-small cell lung cancer (NCI-H460)
Assay: Anticancer activity assay (WST-8 cell growth), NCI-H460
Format: cell-based
Settings: Homo sapiens, NCI-H460, 96 h, read-out: IC50 (nM) NCI-H460
Description: as §1, §2, §3

| Structure (SMILES) | IC50 [nM] |
| --- | --- |
| CC[C@H](C)[C@@H]([C@@H](CC(=O)N1C[C@H](OC)C[C@H]1[C@H](OC)[C@@H](C)C(=O)NCC(=O)c1ccccc1)OC)N(C)C(=O)[C@@H](NC(=O)[C@@H](NC)C(C)C)C(C)C [Compound I-34] | 10.9 |
